Test results from patent US20150344535A1, “NEUROTROPHIN-TYROSINE KINASE RECEPTOR SIGNALING” (THE UNIVERSITY OF QUEENSLAND, priority 2012, published 2015).

Tests used:
[1] = Long term potentiation (LTP) in the hippocampus in vivo; set-up: species or system mouse
Source text: In further support of this, LTP was induced in mice by standard methods, as previously described: Kameda et al. Transl Psychiatry. 2012 Jan. 31; 2:e72. Activation of latent precursors in the hippocampus is dependent on long-term potentiation. […] BDNF acting via TrkB is well established to enhance this type of synaptic activity, including specifically hippocampal late-phase LTP at CA1-CA3 synapses (as measured here), and mice with reduced BDNF secretion show deficits in this LTP (e.g. Y. Lu et al., 2008; An et al., 2008; Ninan et al., 2010). […] In FIG. 13, c29 10 mg/kg: n=3 animals; c29 5 mg/kg: n=2 animals; scrambled 10 mg/kg: n=3 animals, c57: n=2 animals.

[2] = system: C7-8 spinal cord motor neurons; assay: Motor neuron axotomy (median and ulnar nerve) in neonatal rat; type: in vivo; conditions: four day old rat, unilateral axotomy of the ulnar nerve, FIG. 7E
Description: Median and ulnar nerve axotomy was performed on 4 day-old Wistar rat pups as previously described (Cheema et al., 1996). Peptides (c29 and vehicle only; 100 nM) were applied via a 1 mm^3 cube of pluronic gel foam that was sutured to the proximal axonal stump (Cheema et al., 1996). After 5 days the animals were perfused with a 4% solution of paraformaldehyde in phosphate buffer. Cervical spinal cords were removed, after which serial sections were cut at 40 μm, mounted onto gelatin-coated slides and stained in 0.1% cresyl violet. Details of the counting procedure have been described previously (Cheema et al., 1994).
We next investigated whether c29 could prevent motor neuron death following growth factor withdrawal in vivo using a neonatal rat axotomy model. Following unilateral median and ulnar nerve transections of postnatal day 4 (P4) rat pups, c29 or the vehicle protein transduction domain (PTD4) was applied to the proximal site of transaction in a small cube of gel foam. After a 5-day recovery, the number of surviving C7-8 spinal cord motor neurons relative to the contralateral side was determined by histological counts. Such an axotomy causes 50% of the ipsilateral motor neurons to die (Cheema et al., 1996), with control peptide treatment having no effect on this degree of cell death (FIG. 7E, F). […]

[3] = system: motor neurons; assay: Motor neuron survival in SOD1G93A mutant mice; type: in vivo, mouse
Description: To determine whether c29 could reduce neuron death in a motor neuron mouse model, 60 day postnatal SOD1G93A mutant mice were injected subcutaneously by osmotic pump with 5 mg/kg of TAT-c29, scrambled peptide, or the peptide vehicle. After 115 days postnatal, neuron survival in the […] was determined.

YARAAARNARAKRWNSCKQNKQGANSRPVNQTPPPEGEKL (TAT-c29 - Fusion of TAT with c29)
LTP in the hippocampus ([1]; 5 mg/kg I.P, after the high frequency train): transient enhancement of LTP lasting only the first 6 minutes
LTP in the hippocampus ([1]; 10 mg/kg i.p., vs scrambled peptide- or vehicle-treated animals): enhanced LTP
protection from motor neuron loss [2]: significant protection from motor neuron loss
enhancement of motor neuron survival ([3]; 5 mg/kg subcutaneously by osmotic pump from 60 days postnatal, read at 115 days postnatal): 30%
motor neuron number ([3]; 5 mg/kg, 115 days postnatal, equivalent of wild-type): 10 motor neurons per section per dorsal horn
